Source: patent US8129396B2, “2-[1H-benzimidazol-2(3H)-ylidene]-2-(pyrimidin-2-yl)acetamides and 2-[benzothiazol-2(3H)-ylidene]-2-(pyrimidin-2-yl)acetamides as kinase inhibitors” (Telik, Inc., priority 2008, dated 2012)

How the values were obtained:
[1] = system: p-H3 in HCT116 cells; test: Histone phosphorylation (p-H3) assay; format: cell-based; conditions: Homo sapiens, HCT-116; HCT116 cells, 4 hr incubation; read-out: p-H3 IC50
Excerpt: (§1) The cell lines HL60 (human promyelocytic leukemia) and HCT116 (human colon carcinoma) were obtained from the American Type Culture Collection, Manassas, Va., U.S.A., and HUVEC-2 (human umbilical vein endothelial cells) from BD Biosciences, Bedford, Mass., U.S.A. Aurora A kinase was obtained from Upstate Biotech, Billerica, Mass., U.S.A.; Aurora B kinase from BPS Bioscience, San Diego, Calif., U.S.A.; and VEGFR2 kinase from Cell Signaling Technology, Danvers, Mass., U.S.A. The IMAP FP Screening Express kit was obtained from Molecular Devices, Sunnyvale, Calif., U.S.A.; the CellTiter-Glo assay kit from Promega Corporation, Madison, Wis., U.S.A.; and the Cellular DNA Cytometric Analysis Reagent Kit and BrdU labeling and detection kit from Roche Diagnostics Corporation, Indianapolis, Ind., U.S.A. All products were used in accordance with manufacturer's directions. Kinase inhibition assays and the histone phosphorylation (p-H3) assay were conducted in duplicate, and the cytotoxicity and HUVEC proliferation assays were conducted in triplicate, in each case with solvent control.
Log phase HCT116 cells were seeded at 2.5×10^4 cells/well in a 96-well plate and allowed to attach overnight. The test compounds were diluted in DMSO (8 concentrations with serial 3-fold dilutions) and added to the cells (0.5% DMSO final concentration), and the cells incubated for 4 hr. The cells were then washed three times with cold phosphate-buffered saline (PBS), and lysis buffer was added. After 30 min shaking at 4° C. and centrifugation, the supernatants were transferred to a nitrocellulose membrane by a “dot-blot” apparatus. After washing the wells, the membrane was processed for Western blot. Detection of p-H3 and β-actin was performed on the same membrane with primary rabbit anti-p-H3 and mouse anti-β-actin antibodies followed by secondary goat anti-rabbit IRDye800 and goat anti-mouse AlexaFluor 680 antibodies. The membranes were scanned on an Odyssey scanner.

[2] = target: T1, Aurora A kinase (Homo sapiens, UniProt O14965); test: Aurora A kinase assay (IMAP fluorescence polarization); format: biochemical; conditions: 10 μM ATP; rounded to 1 significant figure; read-out: Aur-A IC50
T1 construct: purchased Upstate Biotech
T1 sequence (O14965 1-403): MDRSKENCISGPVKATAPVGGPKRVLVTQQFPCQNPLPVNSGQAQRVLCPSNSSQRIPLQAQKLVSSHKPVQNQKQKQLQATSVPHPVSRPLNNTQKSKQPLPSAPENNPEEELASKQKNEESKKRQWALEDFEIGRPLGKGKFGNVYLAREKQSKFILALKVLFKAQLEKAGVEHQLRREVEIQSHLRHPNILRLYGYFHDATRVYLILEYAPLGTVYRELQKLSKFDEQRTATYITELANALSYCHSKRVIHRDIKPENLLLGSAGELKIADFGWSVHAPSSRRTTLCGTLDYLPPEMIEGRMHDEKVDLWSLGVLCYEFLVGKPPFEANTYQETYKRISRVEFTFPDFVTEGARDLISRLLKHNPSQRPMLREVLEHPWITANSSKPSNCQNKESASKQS
Excerpt: as §1
Aurora A kinase assay: the test compounds were diluted in dimethylsulfoxide (DMSO, eight concentrations with serial 3-fold dilutions) and incubated (final DMSO concentration 2.5%) with Aurora A kinase at room temperature for 5 min in kinase reaction buffer with 1 mM dithiothreitol (IMAP FP Screening Express). The kinase reaction was initiated by adding 100 nM fluorescein labeled PKAtide and 10 μM adenosine triphosphate (ATP), and allowed to continue for 45 min at room temperature, after which it was stopped by adding binding reagent (1:400 dilution in binding buffer A). After 30 min of room temperature incubation with shaking, the fluorescence polarization was measured on a LJL plate reader. Aurora B kinase assay: performed as for the Aurora A kinase assay, but using Aurora B kinase instead of Aurora A kinase.

[3] = target: T2, VEGFR2 kinase (Homo sapiens, UniProt P35968); test: VEGFR2 kinase assay; format: biochemical; conditions: 6 μM ATP, 1 mM MnCl2; rounded to 1 significant figure
T2 construct: purchased Cell Signaling Technology
Excerpt: as §1
This assay was performed as for the Aurora A kinase assay, using VEGFR2 kinase, CSKtide as the substrate with 6 μM ATP and 1 mM MnCl2, a kinase reaction time of 1 hr, and dilution of the binding reagent 1:1200 in binding buffer A/binding buffer B (1:1).

[4] = system: HUVEC-2 (human umbilical vein endothelial cells); test: HUVEC VEGF-dependent proliferation assay (BrdU); format: cell-based; conditions: VEGF (25 ng/mL)-dependent proliferation, read-out: HUVEC IC50
Excerpt: as §1
HUVEC-2 cells were seeded at 10^4 cells/well in a 96-well plate coated with 0.1% gelatin in complete medium. […] The compounds were serially diluted in DMSO, and added to the cells at 0.5% DMSO final concentration. After 2 hr, VEGF (25 ng/mL) was added; and after a further day, 5-bromo-2-deoxyuridine (BrdU, 10 μM) was added to label proliferating cells, and the cells incubated for another day. The plates were then processed using the Roche BrdU labeling and detection kit, and the VEGF-dependent antiproliferative activity of the compounds determined.

[5] = target: T3, Aurora B kinase (Homo sapiens, UniProt Q96GD4); test: Aurora B kinase assay (IMAP fluorescence polarization); format: biochemical; conditions: 10 μM ATP; rounded to 1 significant figure; read-out: Aur-B IC50
T3 construct: purchased BPS Bioscience
Excerpt: as §1
The kinase reaction was initiated by adding 100 nM fluorescein labeled PKAtide and 10 μM adenosine triphosphate (ATP), and allowed to continue for 45 min at room temperature, after which it was stopped by adding binding reagent (1:400 dilution in binding buffer A). After 30 min of room temperature incubation with shaking, the fluorescence polarization was measured on a LJL plate reader. Aurora B kinase assay: performed as for the Aurora A kinase assay, but using Aurora B kinase instead of Aurora A kinase.

[6] = system: HCT116 (human colon carcinoma) cells; test: HCT116 cytotoxicity assay (CellTiter-Glo); format: cell-based; conditions: HCT-116, 72 h, cytotoxicity, three days culture, read-out: HCT116 IC50
Excerpt: as §1
Log-phase cells were trypsinized, collected by centrifugation, and resuspended in a small volume of fresh medium, and the density of viable cells was determined following Trypan Blue staining. Cells were diluted in fresh media (1×10^4 cells/mL for HL60 and 4×10^4 cells/mL for HCT116 cells), the test compounds (concentrations between 0.1 μM and 200 μM, dissolved in DMSO, 50 μL) added immediately after dilution to achieve a final DMSO concentration of 0.5%, then the suspensions added at 150 μL/well to 96-well plates, and incubated overnight to allow attachment in the case of adherent cells. The cells were cultured for three days (about three doubling times). The cells were then collected by centrifugation, and 100 μL of the culture supernatant was replaced by the CellTiter-Glo reagent. After incubation for 15 minutes at room temperature, the plate was read with a luminometer.

T3 sequence (Q96GD4 whole entry): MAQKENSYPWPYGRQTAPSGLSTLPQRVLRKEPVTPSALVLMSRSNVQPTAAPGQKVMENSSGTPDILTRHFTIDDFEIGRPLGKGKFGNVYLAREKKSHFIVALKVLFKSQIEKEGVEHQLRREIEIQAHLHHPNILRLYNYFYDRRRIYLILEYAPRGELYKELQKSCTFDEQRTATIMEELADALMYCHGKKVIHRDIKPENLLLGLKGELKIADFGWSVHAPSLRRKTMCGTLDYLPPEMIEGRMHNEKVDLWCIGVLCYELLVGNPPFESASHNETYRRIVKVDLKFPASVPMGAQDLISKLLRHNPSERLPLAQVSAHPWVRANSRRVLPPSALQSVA
T2 sequence (P35968 20-1356): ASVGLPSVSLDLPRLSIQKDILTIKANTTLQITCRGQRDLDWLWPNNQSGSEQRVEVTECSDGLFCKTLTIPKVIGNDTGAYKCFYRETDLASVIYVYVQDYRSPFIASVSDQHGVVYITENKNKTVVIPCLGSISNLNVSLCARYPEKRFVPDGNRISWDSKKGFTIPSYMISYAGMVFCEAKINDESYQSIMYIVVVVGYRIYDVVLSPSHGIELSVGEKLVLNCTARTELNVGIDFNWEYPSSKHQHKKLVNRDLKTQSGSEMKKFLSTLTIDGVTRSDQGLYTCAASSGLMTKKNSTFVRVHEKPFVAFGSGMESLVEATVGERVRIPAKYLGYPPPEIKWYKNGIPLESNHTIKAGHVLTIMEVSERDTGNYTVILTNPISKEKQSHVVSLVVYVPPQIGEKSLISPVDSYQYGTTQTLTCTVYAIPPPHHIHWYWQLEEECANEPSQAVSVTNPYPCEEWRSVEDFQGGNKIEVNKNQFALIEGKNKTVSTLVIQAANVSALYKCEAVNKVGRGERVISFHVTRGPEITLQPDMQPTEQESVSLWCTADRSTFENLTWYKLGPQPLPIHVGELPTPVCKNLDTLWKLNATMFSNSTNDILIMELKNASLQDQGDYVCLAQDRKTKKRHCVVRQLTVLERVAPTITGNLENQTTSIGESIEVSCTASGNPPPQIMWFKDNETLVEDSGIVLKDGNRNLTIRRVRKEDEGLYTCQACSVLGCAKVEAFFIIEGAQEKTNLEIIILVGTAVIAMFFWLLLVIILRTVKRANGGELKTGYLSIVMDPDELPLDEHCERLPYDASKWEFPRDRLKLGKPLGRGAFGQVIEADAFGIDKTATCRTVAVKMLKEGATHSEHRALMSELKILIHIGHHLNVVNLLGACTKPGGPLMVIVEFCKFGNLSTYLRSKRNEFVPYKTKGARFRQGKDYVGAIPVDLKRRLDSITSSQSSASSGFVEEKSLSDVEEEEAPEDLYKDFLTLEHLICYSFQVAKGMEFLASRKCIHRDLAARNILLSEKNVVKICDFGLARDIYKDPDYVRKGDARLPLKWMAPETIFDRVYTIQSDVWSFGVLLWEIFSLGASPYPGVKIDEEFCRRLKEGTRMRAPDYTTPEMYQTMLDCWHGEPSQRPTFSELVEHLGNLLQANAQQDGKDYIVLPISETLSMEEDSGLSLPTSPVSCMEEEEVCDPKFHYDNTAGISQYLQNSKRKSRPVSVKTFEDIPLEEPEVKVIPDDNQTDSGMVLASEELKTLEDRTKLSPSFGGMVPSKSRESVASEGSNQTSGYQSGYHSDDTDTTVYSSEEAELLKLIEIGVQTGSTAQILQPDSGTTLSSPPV

Compound	IC50 [1] [nM]	IC50 [2] [nM]	IC50 [3] [nM]	IC50 [5] [nM]	IC50 [4] [nM]	IC50 [6] [nM]
NC(=O)/C(=C1\Nc2ccc(S(=O)(=O)NCCN3CCOCC3)cc2S1)c1nccc(C(F)(F)F)n1 [Compound 128A]	600	10	60	20	60	900
NC(=O)/C(=C1\Nc2ccccc2S1)c1ncc(C(=O)NCCCN2CCOCC2)c(C(F)(F)F)n1 [Compound 131A]	900	90	200	60	800	2000
NC(=O)/C(=C1\Nc2ccc(C(=O)Nc3ccncc3)cc2N1)c1nccc(C(F)(F)F)n1 [Compound 44A]	200	10	10	10	80	200
CN1CCN(CCC(=O)Nc2ccc3c(c2)N/C(=C(/C(N)=O)c2nccc(C(F)(F)F)n2)N3)CC1 [Compound 83A]	200	6	60	10	200	200
NC(=O)/C(=C1\Nc2ccc(CN3CCOCC3)cc2S1)c1nccc(C(F)(F)F)n1 [Compound 91A]	100	2	10	20	40	300
NC(=O)/C(=C1\Nc2cc(F)c(C(=O)NCCCN3CCOCC3)cc2S1)c1nccc(C(F)(F)F)n1 [Compound 50A]	400	20	20	10	90	300
NC(=O)/C(=C1\Nc2ccc(NC(=O)[C@@H]3CCCN3)cc2N1)c1nccc(C(F)(F)F)n1 [Compound 80A]	90	10	50	4	100	500
CN1CCN(C(=O)c2ccc3c(c2)N/C(=C(/C(N)=O)c2nccc(C(F)(F)F)n2)N3)CC1 [Compound 58A]	500	9	9	5	60	400
NC(=O)/C(=C1\Nc2cc(OCCN3CCOCC3)ccc2S1)c1nccc(C(F)(F)F)n1 [Compound 112A]	900	20	200	20	200	2000
CN1CCN(CCOc2ccc3c(c2)S/C(=C(/C(N)=O)c2nccc(C(F)(F)F)n2)N3)CC1 [Compound 114A]	50	40	40	20	40	600

Second part, led by results:

IC50 [1] [nM]	IC50 [2] [nM]	IC50 [3] [nM]	IC50 [5] [nM]	Compound	IC50 [4] [nM]	IC50 [6] [nM]
2000	100	300	20	COc1ccnc(/C(C(N)=O)=C2/Nc3ccccc3S2)n1 [Compound 16A]	2000	2000
400	70	6	10	CN(C)CCCNC(=O)c1ccc2c(c1)N/C(=C(/C(N)=O)c1nccc(C(F)(F)F)n1)N2 [Compound 62A]	60	60
300	100	20	9	CN1CCN(C(=O)c2cnc(C(C(N)=O)=C3Nc4ccccc4S3)nc2C(F)(F)F)CC1 (single isomer, unassigned) [Compound 130A, 2-[benzothiazol-2(3H)-ylidene]-2-[5-(4-methylpiperazine-1-carbonyl)-4-trifluoromethylpyrimidin-2-yl]acetamide]	400	2000
400	30	5	30	NCCNC(=O)c1ccc2c(c1)S/C(=C(/C(N)=O)c1nccc(C(F)(F)F)n1)N2 [Compound 63A]	60	200
300	20	20	20	NC(=O)/C(=C1\Nc2ccc(C(=O)Nc3ccc(CN4CCOCC4)cc3)cc2N1)c1nccc(C(F)(F)F)n1 [Compound 72A]	80	200
200	30	20	10	CN(CCN1CCCCC1)c1ccc2c(c1)S/C(=C(/C(N)=O)c1nccc(C(F)(F)F)n1)N2 [Compound 125A]	600	3000
100	20	10	20	CN1CCN(Cc2ccc3c(c2)S/C(=C(/C(N)=O)c2nccc(C(F)(F)F)n2)N3)CC1 [Compound 93A]	30	300
500	30	2	9	CN1CCN(c2ccc3c(c2)S/C(=C(/C(N)=O)c2nccc(C(F)(F)F)n2)N3)CC1 [Compound 120A]	2000	2000
40	10	4	40	NC(=O)/C(=C1\Nc2ccc(C(=O)N3CCC(N)CC3)cc2S1)c1nccc(C(F)(F)F)n1 [Compound 67A]	20	200
900	3	30	20	Cn1ccnc1-c1ccc2c(c1)S/C(=C(/C(N)=O)c1nccc(C(F)(F)F)n1)N2 [Compound 106A]	80	2000
500	70	400	30	COc1ccnc(/C(C(N)=O)=C2/Nc3ccc(CN4CCOCC4)cc3S2)n1 [Compound 92A]	60	5000
